Laboratory results: US8592468B2, “Bacterial thioredoxin reductase inhibitors and methods for use thereof” (Thioredoxin Systems AB, priority 2006, dated 2013)
≈ marks a conversion by molar mass, not a printed value.

Experiments:
E. coli TrxR [1] = biological target: T1, E. coli TrxR (Escherichia coli (strain K12), UniProt P0A9P4); test: Inhibition of E. coli TrxR reduction of Trx, DTNB coupled assay (Lineweaver-Burk); format: biochemical
Method: FIGS. 4A and 4B show the effect of ebselen (FIG. 4A) and ebselen diselenide (FIG. 4B) on DTNB reduction by E. coli thioredoxin and thioredoxin reductase. Assays were contained in 0.50 ml semi-microcuvettes containing 0.24 mM NADPH, 1 mM DTNB in 0.10 M Tris-Cl, pH 8.0, 1 mM EDTA. The increase in A412 was measured against a blank using 10 nM E. coli TrxR in the presence of 2 μM (grey filled points), 5 μM (white filled points), 10 μM (black filled points) E. coli Trx with 0 (squares), 0.5 μM (triangles), 1 μM (rhombus), 2 μM (rounds) of ebselen or ebselen diselenide.
(A) Ebselen concentrations were 0 μM (▴), 0.5 μM (∀), 1 μM (▪) and 2 μM (Δ). […] (B) Ebselen concentrations were 0 μM (▴), 1 μM (▪) and 2 μM (∀).
(§1) The activity of the enzyme was determined at room temperature using an Ultrospec 3000 UV/Visual spectrophotometer (Amersham Biosciences). […] The enzyme-catalysed reactions were followed at 340 nm using the standard calculation of NADPH oxidation to NADP^+ with a molar extinction coefficient of 6200 M^−1 cm^−1 (32, 34). The conditions of the assay of bacterial thioredoxin reductase have been described (32, 34) using either 1 mM DTNB or 160 μM insulin as a substrate. In DTNB coupled assays, 240 μM NADPH and 1 mM DTNB were used in the TE buffer and formation of the TNB was measured at 412 nm, where TNB has an extinction coefficient of 13600 M^−1 cm^−1.
(§2) Further we examined the effect of ebselen in the reduction of disulphide by E. coli Trx and TrxR using both DTNB and insulin as substrates. […] FIGS. 4A and 4B show the effect of ebselen (4A) and ebselen diselenide (4B) on DTNB reduction by E. coli thioredoxin and thioredoxin reductase. Assays in semi-microcuvettes with 0.5 ml solution contained 0.24 mM NADPH, 1 mM DTNB in 50 mM Tris-Cl/1 mM EDTA, pH 7.5 buffer. (A) In the presence of 2 μM (grey filled points), 5 μM (white filled points) and 10 μM (black filled points) of E. coli Trx and 7.6 nM of E. coli TrxR with ebselen at concentrations of zero (squares), 0.5 μM (triangles), 1 μM (rhombus), and 2 μM (rounds), the increase in A412 was measured against a blank. (B) In the presence of 2 μM (grey filled points), 5 μM (white filled points) and 10 μM (black filled points) of E. coli Trx and 10 nM of E. coli TrxR, with ebselen diselenide at concentrations of zero (squares), 1 μM (triangles) and 2 μM (rounds), the increase in A412 was measured against a blank.

E. coli TrxR [2] = biological target: T1, E. coli TrxR; format: biochemical
Method: In FIG. 6A, 10 μM of ebselen (▴) and 10 μM of PZ25 (▪) were used as substrate of 25 nM calf thymus TrxR. In FIG. 6B, 10 μM of PZ25 was used as substrate for 10 nM calf thymus TrxR (◯) and 10 nM of E. coli TrxR (●). Reactions were started by adding enzymes in cuvettes containing 500 μl TE buffer with 100 μM NADPH, of which the consumption were followed by the changes of the absorption at 340 nm against identical blank without enzymes.
Reactions were started by adding enzymes to cuvettes containing 500 μl TE buffer with 100 μM NADPH and 16 μM compounds. The NADPH consumption was followed by the changes of the absorption at 340 nm against identical blank without enzymes.
as §1, §2

[3] = system: Mycobacterium tuberculosis; test: Inhibition of Mycobacterium tuberculosis by ebselen, radiometric BACTEC 460 system; format: cell-based
Helicobacter pylori = test: Bactericidal effects of ebselen on Helicobacter pylori (MBC); format: cell-based; design: key to Sensitivity to ebselen: S: sensitive; R: resistant
Method: The bacteria were cultured in 96-well microtiter plates with a microaerophilic environment at 37° C. for 4 days. The whole amount of the wells was then plated on GC agar plates containing different concentrations of ebselen. Ebselen was diluted in a two-fold series (0.39-200 μg/ml), the minimal bactericidal concentration (MBC) was determined by the first concentration with a total bactericidal effect.

[4] = biological target: E. coli ribonucleotide reductase (Escherichia coli (strain K12), UniProt P00452+P69924); test: Inhibition of E. coli ribonucleotide reductase (data not shown); format: biochemical
Sequence of E. coli ribonucleotide reductase (P00452 whole entry, looked up): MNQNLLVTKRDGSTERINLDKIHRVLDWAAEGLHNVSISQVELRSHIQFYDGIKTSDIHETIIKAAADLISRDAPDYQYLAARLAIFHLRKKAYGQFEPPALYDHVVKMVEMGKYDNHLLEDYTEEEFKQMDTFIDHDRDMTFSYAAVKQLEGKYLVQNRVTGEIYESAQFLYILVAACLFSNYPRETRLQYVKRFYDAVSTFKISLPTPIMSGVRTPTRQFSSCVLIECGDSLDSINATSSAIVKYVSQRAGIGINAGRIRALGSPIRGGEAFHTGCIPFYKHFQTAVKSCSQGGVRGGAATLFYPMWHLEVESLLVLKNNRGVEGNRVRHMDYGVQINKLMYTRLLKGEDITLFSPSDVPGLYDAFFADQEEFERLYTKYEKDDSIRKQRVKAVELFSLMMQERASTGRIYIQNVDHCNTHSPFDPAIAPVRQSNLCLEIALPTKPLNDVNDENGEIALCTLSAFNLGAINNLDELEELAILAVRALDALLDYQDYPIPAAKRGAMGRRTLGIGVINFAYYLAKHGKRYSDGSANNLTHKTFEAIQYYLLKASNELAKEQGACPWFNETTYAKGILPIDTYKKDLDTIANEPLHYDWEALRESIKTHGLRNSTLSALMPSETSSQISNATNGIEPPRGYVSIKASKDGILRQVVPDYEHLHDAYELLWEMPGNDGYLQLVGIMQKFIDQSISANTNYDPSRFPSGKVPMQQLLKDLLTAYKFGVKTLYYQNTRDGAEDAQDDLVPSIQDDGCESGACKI
Sequence of E. coli ribonucleotide reductase (P69924 whole entry, looked up): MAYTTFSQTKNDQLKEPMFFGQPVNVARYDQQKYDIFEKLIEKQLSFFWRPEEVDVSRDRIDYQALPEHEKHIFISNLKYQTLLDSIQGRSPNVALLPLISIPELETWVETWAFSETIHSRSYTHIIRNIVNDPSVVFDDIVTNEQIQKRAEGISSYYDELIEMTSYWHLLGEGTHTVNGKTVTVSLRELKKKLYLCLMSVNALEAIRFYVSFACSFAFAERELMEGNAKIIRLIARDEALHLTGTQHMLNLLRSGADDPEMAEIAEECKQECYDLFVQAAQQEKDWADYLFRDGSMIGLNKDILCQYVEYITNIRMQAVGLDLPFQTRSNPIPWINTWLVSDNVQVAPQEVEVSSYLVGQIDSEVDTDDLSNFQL

E. coli NHHJ = details: strains of Enterobacteriaceae like E. coli NHHJ; cited from earlier work
Gor^- DHB4 E. coli = test: Bacterial inhibition by ebselen derivates, MIC; details: Escherichia coli, 4 h, read-out: MIC for Gor^- DHB4 E. coli
Method: E. coli DHB4 strains wt, gshA^−, gor^−, oxyR^− were cultured overnight in LB medium. […] OD 600 was detected and DMSO was used as the control. […] The data are the means of two experiments.

T1 sequence (P0A9P4 2-321 limits assumed): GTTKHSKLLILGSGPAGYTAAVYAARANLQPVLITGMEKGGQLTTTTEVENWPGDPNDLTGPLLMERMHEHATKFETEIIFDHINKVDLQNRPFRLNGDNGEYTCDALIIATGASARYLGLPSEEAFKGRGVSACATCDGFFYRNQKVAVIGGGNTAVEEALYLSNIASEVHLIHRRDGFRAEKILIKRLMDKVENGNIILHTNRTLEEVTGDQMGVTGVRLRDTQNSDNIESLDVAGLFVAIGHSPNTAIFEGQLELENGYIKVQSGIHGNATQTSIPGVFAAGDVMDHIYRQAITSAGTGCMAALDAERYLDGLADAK

O=c1c2ccccc2[se]n1-c1ccccc1 [EbSe 6, 2-phenyl-1,2-benzisoselenazol-3(2H)-one]
inhibition of E. coli TrxR (in words) (E. coli TrxR [1]): strongly inhibited | Ki (E. coli TrxR [1]; Ki (competitive inhibitor of Trx reduction by E. coli TrxR), from Lineweaver-Burk slopes): 150 nM | oxidation of NADPH when directly added to E. coli TrxR and NADPH (E. coli TrxR [2]): no oxidations of NADPH | MIC ([3]; Mycobacterium tuberculosis): < 20 µg/mL | Sensitivity to ebselen ([3]; strain BTB 98-310 (MDR), ebselen 10 μg/ml): R | Sensitivity to ebselen ([3]; strain BTB 98-310 (MDR), ebselen 20 μg/ml): S | Sensitivity to ebselen ([3]; strain BTB 98-310 (MDR), ebselen 40 μg/ml): S | Sensitivity to ebselen ([3]; strain BTB 98-310 (MDR), ebselen 80 μg/ml): S | Sensitivity to ebselen ([3]; strain H37Rv, ebselen 10 μg/ml): R | Sensitivity to ebselen ([3]; strain H37Rv, ebselen 20 μg/ml): S | Sensitivity to ebselen ([3]; strain H37Rv, ebselen 40 μg/ml): S | Sensitivity to ebselen ([3]; strain H37Rv, ebselen 80 μg/ml): S | Sensitivity to ebselen ([3]; strain Panel3:24 (MDR), ebselen 10 μg/ml): R | Sensitivity to ebselen ([3]; strain Panel3:24 (MDR), ebselen 20 μg/ml): S | Sensitivity to ebselen ([3]; strain Panel3:24 (MDR), ebselen 40 μg/ml): S | Sensitivity to ebselen ([3]; strain Panel3:24 (MDR), ebselen 80 μg/ml): S | Sensitivity to ebselen (Helicobacter pylori; strain MR G162, ebselen 0.78 μg/ml): R | Sensitivity to ebselen (Helicobacter pylori; strain MR G162, ebselen 1.56 μg/ml): R | Sensitivity to ebselen (Helicobacter pylori; strain MR G162, ebselen 3.125 μg/ml): R | Sensitivity to ebselen (Helicobacter pylori; strain MR G162, ebselen 6.25 μg/ml): R | Sensitivity to ebselen (Helicobacter pylori; strain MR G162, ebselen 25 μg/ml): S | Sensitivity to ebselen (Helicobacter pylori; strain MR G162, ebselen 50 μg/ml): S | Sensitivity to ebselen (Helicobacter pylori; strain MR G162, ebselen 100 μg/ml): S | Sensitivity to ebselen (Helicobacter pylori; strain MR G193, ebselen 0.78 μg/ml): R | Sensitivity to ebselen (Helicobacter pylori; strain MR G193, ebselen 1.56 μg/ml): R | Sensitivity to ebselen (Helicobacter pylori; strain MR G193, ebselen 3.125 μg/ml): R | Sensitivity to ebselen (Helicobacter pylori; strain MR G193, ebselen 6.25 μg/ml): R | Sensitivity to ebselen (Helicobacter pylori; strain MR G193, ebselen 25 μg/ml): S | Sensitivity to ebselen (Helicobacter pylori; strain MR G193, ebselen 50 μg/ml): S | Sensitivity to ebselen (Helicobacter pylori; strain MR G193, ebselen 100 μg/ml): S | Sensitivity to ebselen (Helicobacter pylori; strain MS G6, ebselen 0.78 μg/ml): R | Sensitivity to ebselen (Helicobacter pylori; strain MS G6, ebselen 1.56 μg/ml): R | Sensitivity to ebselen (Helicobacter pylori; strain MS G6, ebselen 3.125 μg/ml): S | Sensitivity to ebselen (Helicobacter pylori; strain MS G6, ebselen 6.25 μg/ml): S | Sensitivity to ebselen (Helicobacter pylori; strain MS G6, ebselen 25 μg/ml): S | Sensitivity to ebselen (Helicobacter pylori; strain MS G6, ebselen 50 μg/ml): S | Sensitivity to ebselen (Helicobacter pylori; strain MS G6, ebselen 100 μg/ml): S | Sensitivity to ebselen (Helicobacter pylori; strain MS G142, ebselen 0.78 μg/ml): R | Sensitivity to ebselen (Helicobacter pylori; strain MS G142, ebselen 1.56 μg/ml): R | Sensitivity to ebselen (Helicobacter pylori; strain MS G142, ebselen 3.125 μg/ml): R | Sensitivity to ebselen (Helicobacter pylori; strain MS G142, ebselen 6.25 μg/ml): S | Sensitivity to ebselen (Helicobacter pylori; strain MS G142, ebselen 25 μg/ml): S | Sensitivity to ebselen (Helicobacter pylori; strain MS G142, ebselen 50 μg/ml): S | Sensitivity to ebselen (Helicobacter pylori; strain MS G142, ebselen 100 μg/ml): S | minimal bactericidal concentration (MBC) (Helicobacter pylori; two macrolide sensitive strains, listed as ebselen): 6.25 µg/mL (≈ 22.8 µM) | inhibition of E. coli ribonucleotide reductase [4]: effective direct inhibitor | concentration required to inhibit growth (E. coli NHHJ): up to 50 μg per ml | MIC (Gor^- DHB4 E. coli): 15 µM (≈ 4.11 µg/mL)
